From patent US11827622B2, “Crystalline forms of imidacloprid and methods of use thereof” (New York University, priority 2020, dated 2023)

Legend:
Culex quinquefasciatus = test: Lethality (knockdown time) on contact with IMI polymorph microcrystals in petri dish, Culex mosquitoes; assay type: in vivo; conditions: Culex females; median knockdown time; 0.100 mg microcrystals per 100 mm dish
Experimental: (§1) Lethality measurements for IMI polymorphs. Microcrystals of IMI Forms I, IV, VI, and IX were prepared by grinding respective single crystals using a mortar and pestle. Their compositions were then analyzed by powder X-ray diffraction (PXRD). Lethality measurements were performed in triplicate for each solid-state form, each accompanied by three controls (no insecticide). 2.0 mg of microcrystals was added to a 35 mm diameter polystyrene petri dish, which was subsequently shaken to disperse the microcrystals throughout the petri dish. Microcrystals was added to a polystyrene petri dish (2.000 mg microcrystals per 35 mm diameter dish for fruit flies; 0.100 mg microcrystals per 100 mm diameter dish for mosquitoes), which was subsequently shaken to disperse the microcrystals throughout the petri dish. Adult mosquitoes (Ae. aegypti, A. quadrimaculatus or C. quinquefasciatus) or fruit flies (D. melanogaster) were sedated with carbon dioxide and 30 female mosquitoes or 20 flies were transferred to each petri dish. The top of the dish was then placed over the bottom and the motion of the insects was recorded with a video camera (Sony HDR-CX455). The knockdown time was measured for each individual insect, with knockdown associated with an insect laying on the bottom surface of the petri dish in a supine position without moving from its original position after 10 seconds.
(§2) Statistical analyses. Logistic regression of knockdown-time curves was preformed to obtain the median knockdown time (KT50) of the test flies and mosquitoes, the 95% confidence intervals (CI), slopes, and standard errors (SE) using Qcal software.

[1] = system: Anopheles quadrimaculatus; test: Lethality (knockdown time) on contact with IMI polymorph microcrystals in petri dish, Anopheles mosquitoes; assay type: in vivo; conditions: Anopheles females; median knockdown time; 0.100 mg microcrystals per 100 mm dish
Experimental: as §1, §2

Drosophila melanogaster = test: Lethality (knockdown time) on contact with IMI polymorph microcrystals in petri dish, fruit flies; assay type: in vivo; conditions: for KT50 (95% CI): median knockdown time, 2.0 mg microcrystals per 35 mm dish; for times faster-acting than Form I: ratio of KT50 values
Experimental: as §1, §2
IMI Forms IX, VI, IV were selected for lethality comparison with the commercial Form I, collectively representing a quartet spanning a wide range of free energies. […] A video camera was used to record the knockdown times—a proxy for lethality—for each insect. KT50 values, the times required for 50% of the insects to become immobile and supine, were calculated by logistic regression of knockdown-time curves (FIGS. 34A-34P). Shorter KT50 values correspond to greater lethality. Accordingly, Forms IX, VI and IV were 5.7, 2.5 and 1.8 times faster-acting than Form I.

[2] = assay type: physicochemical
Experimental: IMI polymorphs exposed in open air at ambient temperature are typically stable for at least 6 months. Although the polymorphic forms were distinguishable by visual inspection (from their interference colors between crossed polarizers and morphologies), their identity and any phase transformations were always corroborated by micro-Raman spectroscopy and PXRD. Form IX held at 95° C. on a microscope hot stage in air transformed to Form V in 3 min, which then converted to Form I at 110° C. in 2 min. Form I also can nucleate directly on the surface of Form IX at T>70° C. Form IX crystals confined between glass slides nucleate Form I, V or VI within Form IX at 80° C. within 1 min. […] Form VI transforms to III when they were in contact at 110° C.

Aedes aegypti = test: Lethality (knockdown time) on contact with IMI polymorph microcrystals in petri dish, Aedes mosquitoes; assay type: in vivo; conditions: for KT50 (95% CI): Aedes females, median knockdown time, 0.100 mg microcrystals per 100 mm dish
Experimental: as §1, §2

Drosophila = test: Lethality measurement of IMI vapor, Drosophila; assay type: in vivo, Drosophila melanogaster
Experimental: (§3) Crystalline insecticide was added to an opened glass vial tapped to the bottom of a petri dish, which was subsequently covered with porous polyester substrate. Female Aedes and Drosophila were sedated with carbon dioxide and were transferred onto the porous substrate. An inverted petri dish was then placed over the polyester substrate to seal the assembly. The motion of the Aedes and Drosophila was recorded with a video camera. An opened glass vial containing 2.0 mg IMI microcrystals was tapped to the bottom of the petri dish (FIGS. 35A-35E).

Aedes = test: Lethality measurement of IMI vapor, Aedes; assay type: in vivo, Aedes aegypti
Experimental: as §3

[3] = 2.0 mg IMI microcrystals in opened glass vial under porous polyester substrate

SMILES | KT50 (95% CI) (Culex quinquefasciatus) | KT50 (95% CI) [1] | KT50 (95% CI) (Drosophila melanogaster) | times faster-acting than Form I (Drosophila melanogaster) | KT50 (95% CI) (Aedes aegypti) | other results
O=[N+]([O-])NC1=NCCN1Cc1ccc(Cl)nc1 [Form IX, 1-[(6-chloro-3-pyridinyl)-methyl]-N-nitro-2-imidazolidinimine] | 89 (88-91) min | 84 (82-86) min | 99 (93-105) min | 5.7 times | 70 (68-71) min | kinetic stability against transformation to other polymorphs [2]: kinetically stable against transformations to other polymorphs; time to nucleation of Form I, V or VI within the form ([2]; crystals confined between glass slides, 80° C.): ≤ 1 min; time of transformation to Form V ([2]; held at 95° C. on microscope hot stage in air): 3 min
O=[N+]([O-])NC1=NCCN1Cc1ccc(Cl)nc1 [Form I, 1-[(6-chloro-3-pyridinyl)-methyl]-N-nitro-2-imidazolidinimine, reference compound] | 573 (568-581) min | 524 (515-534) min | 562 (536-589) min |  | 643 (621-664) min | thermodynamic stability [2]: the most thermodynamically stable crystal form
O=[N+]([O-])N=C1NCCN1Cc1ccc(Cl)nc1 [Form VI, 1-[(6-chloro-3-pyridinyl)-methyl]-N-nitro-2-imidazolidinimine] | 192 (189-195) min | 143 (141-144) min | 223 (210-238) min | 2.5 times | 152 (147-157) min | 
O=[N+]([O-])N=C1NCCN1Cc1ccc(Cl)nc1 [Form V, 1-[(6-chloro-3-pyridinyl)-methyl]-N-nitro-2-imidazolidinimine] |  |  |  |  |  | time of conversion to Form I ([2]; at 110° C.): 2 min
O=[N+]([O-])N=C1NCCN1Cc1ccc(Cl)nc1 [Form IV, 1-[(6-chloro-3-pyridinyl)-methyl]-N-nitro-2-imidazolidinimine] | 311 (309-313) min | 220 (216-224) min | 321 (302-343) min | 1.8 times | 335 (329-342) min | 
O=[N+]([O-])N=C1NCCN1Cc1ccc(Cl)nc1 [IMI, 1-[(6-chloro-3-pyridinyl)-methyl]-N-nitro-2-imidazolidinimine] |  |  |  |  |  | effect of exposure to IMI vapor (Drosophila; [3]): remained viable with no nerve firing symptoms; effect of exposure to IMI vapor (Drosophila; after 12 hours): remained viable with no nerve firing symptoms; time within which all insects were knocked down (Drosophila melanogaster; direct contact with the same amount of IMI microcrystals in petri dishes): ≤ 10 h; effect of exposure to IMI vapor (Aedes; [3]): remained viable with no nerve firing symptoms; effect of exposure to IMI vapor (Aedes; after 12 hours): remained viable with no nerve firing symptoms; time within which all insects were knocked down (Aedes aegypti; Aedes, direct contact with the same amount of IMI microcrystals in petri dishes): ≤ 10 h
